Tests used:
HCT116 [1] = settings: 72 h
Method: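 HCT116 control and MTA1-KO (CRISPR) HCT116 cells were seeded in 384-well plates (800 cells/well), treated 16 h later with 237 metabolism-related anticancer drugs at five doses (10 uM, 2 uM, 400 nM, 80 nM, 16 nM) for 72 h, two replicates; viability by CCK8. Values are % inhibition of viability relative to untreated cells, plus fitted IC50.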

HCT116 [2] = experiment: viability inhibition vs untreated; higher = more cytotoxic; settings: 72 h

With `COc1cc(Nc2nc3ccccc3nc2NS(=O)(=O)c2ccc(NC(=O)c3ccc(C)c(OC)c3)cc2)cc(OC)c1` [Voxtalisib Analogue] the IC50 (HCT116 [1]; genotype: MTA1-KO) was > 10 µM, the IC50 (HCT116 [1]; genotype: control) was > 10 µM and the viability inhibition (HCT116 [2]; genotype: MTA1-KO, 16 nM) was -13.9%. The viability inhibition (HCT116 [2]; genotype: MTA1-KO, 80 nM) was -7.35%, the viability inhibition (HCT116 [2]; genotype: MTA1-KO, 400 nM) was -17% and the viability inhibition (HCT116 [2]; genotype: MTA1-KO, 2000 nM) was -3.38%. For the same molecule, the viability inhibition (HCT116 [2]; genotype: MTA1-KO, 10000 nM) was 24.9%, the viability inhibition (HCT116 [2]; genotype: control, 16 nM) was -7.04% and the viability inhibition (HCT116 [2]; genotype: control, 80 nM) was -8.31%. It also gave a viability inhibition (HCT116 [2]; genotype: control, 400 nM) of -4.56%, a viability inhibition (HCT116 [2]; genotype: control, 2000 nM) of -7.36% and a viability inhibition (HCT116 [2]; genotype: control, 10000 nM) of 5.96%.

For `CCn1c(=O)c(-c2ccn[nH]2)cc2c(C)nc(N)nc21` [Voxtalisib], the IC50 (HCT116 [1]; genotype: MTA1-KO) was 2.36 µM, the IC50 (HCT116 [1]; genotype: control) was 5.49 µM and the viability inhibition (HCT116 [2]; genotype: MTA1-KO, 16 nM) was 5.96%. It also gave a viability inhibition (HCT116 [2]; genotype: MTA1-KO, 80 nM) of -3.02%, a viability inhibition (HCT116 [2]; genotype: MTA1-KO, 400 nM) of 6.24% and a viability inhibition (HCT116 [2]; genotype: MTA1-KO, 2000 nM) of 35.5%. For the same molecule, the viability inhibition (HCT116 [2]; genotype: MTA1-KO, 10000 nM) was 72.3%, the viability inhibition (HCT116 [2]; genotype: control, 16 nM) was 8.11% and the viability inhibition (HCT116 [2]; genotype: control, 80 nM) was 25.4%. For the same molecule, the viability inhibition (HCT116 [2]; genotype: control, 400 nM) was 16.1%, the viability inhibition (HCT116 [2]; genotype: control, 2000 nM) was 37.2% and the viability inhibition (HCT116 [2]; genotype: control, 10000 nM) was 70.3%.

For `COC(=O)Nc1ccc(-c2nc(N3CCOCC3)c3cnn(C4CCN(C(=O)OC)CC4)c3n2)cc1` [WYE354], the IC50 (HCT116 [1]; genotype: MTA1-KO) was 2.79 µM, the IC50 (HCT116 [1]; genotype: control) was > 10 µM and the viability inhibition (HCT116 [2]; genotype: MTA1-KO, 16 nM) was 2.45%. The viability inhibition (HCT116 [2]; genotype: MTA1-KO, 80 nM) was -4.99%, the viability inhibition (HCT116 [2]; genotype: MTA1-KO, 400 nM) was -5.74% and the viability inhibition (HCT116 [2]; genotype: MTA1-KO, 2000 nM) was 4.61%. The viability inhibition (HCT116 [2]; genotype: MTA1-KO, 10000 nM) was 59.8%, the viability inhibition (HCT116 [2]; genotype: control, 16 nM) was -11.9% and the viability inhibition (HCT116 [2]; genotype: control, 80 nM) was -23.4%. It also gave a viability inhibition (HCT116 [2]; genotype: control, 400 nM) of -20.1%, a viability inhibition (HCT116 [2]; genotype: control, 2000 nM) of -21.3% and a viability inhibition (HCT116 [2]; genotype: control, 10000 nM) of 40.4%.

`CCC(=O)Nc1cccc(Oc2nc(Nc3ccc(N4CCN(C)CC4)cc3OC)ncc2Cl)c1` [WZ4003] was tested, and the IC50 (HCT116 [1]; genotype: MTA1-KO) was > 10 µM, the IC50 (HCT116 [1]; genotype: control) was > 10 µM and the viability inhibition (HCT116 [2]; genotype: MTA1-KO, 16 nM) was -5.75%. For the same molecule, the viability inhibition (HCT116 [2]; genotype: MTA1-KO, 80 nM) was -20%, the viability inhibition (HCT116 [2]; genotype: MTA1-KO, 400 nM) was -8% and the viability inhibition (HCT116 [2]; genotype: MTA1-KO, 2000 nM) was -5.19%. The viability inhibition (HCT116 [2]; genotype: MTA1-KO, 10000 nM) was 8.72%, the viability inhibition (HCT116 [2]; genotype: control, 16 nM) was 8.56% and the viability inhibition (HCT116 [2]; genotype: control, 80 nM) was -15.4%. It also gave a viability inhibition (HCT116 [2]; genotype: control, 400 nM) of -4.38%, a viability inhibition (HCT116 [2]; genotype: control, 2000 nM) of -7.1% and a viability inhibition (HCT116 [2]; genotype: control, 10000 nM) of 12.2%.

With `O=C(Oc1cccc(F)c1OC(=O)c1cccc(O)c1)c1cccc(O)c1` [WZB117] the IC50 (HCT116 [1]; genotype: MTA1-KO) was > 10 µM, the IC50 (HCT116 [1]; genotype: control) was > 10 µM and the viability inhibition (HCT116 [2]; genotype: MTA1-KO, 16 nM) was 1.38%. The viability inhibition (HCT116 [2]; genotype: MTA1-KO, 80 nM) was -12.9%, the viability inhibition (HCT116 [2]; genotype: MTA1-KO, 400 nM) was -10.3% and the viability inhibition (HCT116 [2]; genotype: MTA1-KO, 2000 nM) was -1.16%. It also gave a viability inhibition (HCT116 [2]; genotype: MTA1-KO, 10000 nM) of 12.7%, a viability inhibition (HCT116 [2]; genotype: control, 16 nM) of -23.3% and a viability inhibition (HCT116 [2]; genotype: control, 80 nM) of -8.87%. It also gave a viability inhibition (HCT116 [2]; genotype: control, 400 nM) of -3.93%, a viability inhibition (HCT116 [2]; genotype: control, 2000 nM) of -25.9% and a viability inhibition (HCT116 [2]; genotype: control, 10000 nM) of -15%.

In the case of `O=c1[nH]c(-c2ccc(C(F)(F)F)cc2)nc2c1CSCC2` [XAV939], the IC50 (HCT116 [1]; genotype: MTA1-KO) is reported as > 10 µM, the IC50 (HCT116 [1]; genotype: control) is reported as > 10 µM and the viability inhibition (HCT116 [2]; genotype: MTA1-KO, 16 nM) is reported as 1.12%. The viability inhibition (HCT116 [2]; genotype: MTA1-KO, 80 nM) was -14.7%, the viability inhibition (HCT116 [2]; genotype: MTA1-KO, 400 nM) was -18% and the viability inhibition (HCT116 [2]; genotype: MTA1-KO, 2000 nM) was -23.8%. For the same molecule, the viability inhibition (HCT116 [2]; genotype: MTA1-KO, 10000 nM) was -14.9%, the viability inhibition (HCT116 [2]; genotype: control, 16 nM) was 4.99% and the viability inhibition (HCT116 [2]; genotype: control, 80 nM) was 12.8%. The viability inhibition (HCT116 [2]; genotype: control, 400 nM) was 0.365%, the viability inhibition (HCT116 [2]; genotype: control, 2000 nM) was 4.5% and the viability inhibition (HCT116 [2]; genotype: control, 10000 nM) was 0.791%.

With `Cc1c(C(=O)N2CCOc3ccc(-c4ccc(N)nc4)cc3C2)ccc(S(C)(=O)=O)c1F` [XL388] the IC50 (HCT116 [1]; genotype: MTA1-KO) was 4.64 µM, the IC50 (HCT116 [1]; genotype: control) was > 10 µM and the viability inhibition (HCT116 [2]; genotype: MTA1-KO, 16 nM) was -7.29%. It also gave a viability inhibition (HCT116 [2]; genotype: MTA1-KO, 80 nM) of 5.97%, a viability inhibition (HCT116 [2]; genotype: MTA1-KO, 400 nM) of 0.224% and a viability inhibition (HCT116 [2]; genotype: MTA1-KO, 2000 nM) of 19%. It also gave a viability inhibition (HCT116 [2]; genotype: MTA1-KO, 10000 nM) of 74.8%, a viability inhibition (HCT116 [2]; genotype: control, 16 nM) of 0.193% and a viability inhibition (HCT116 [2]; genotype: control, 80 nM) of -2.53%. The viability inhibition (HCT116 [2]; genotype: control, 400 nM) was -7.3%, the viability inhibition (HCT116 [2]; genotype: control, 2000 nM) was -11.7% and the viability inhibition (HCT116 [2]; genotype: control, 10000 nM) was 47%.

`NS(=O)(=O)Cc1noc2ccccc12` [Zonisamide] was tested, and the IC50 (HCT116 [1]; genotype: MTA1-KO) was > 10 µM, the IC50 (HCT116 [1]; genotype: control) was > 10 µM and the viability inhibition (HCT116 [2]; genotype: MTA1-KO, 16 nM) was 2.91%. The viability inhibition (HCT116 [2]; genotype: MTA1-KO, 80 nM) was -1.38%, the viability inhibition (HCT116 [2]; genotype: MTA1-KO, 400 nM) was -4.06% and the viability inhibition (HCT116 [2]; genotype: MTA1-KO, 2000 nM) was -5.28%. The viability inhibition (HCT116 [2]; genotype: MTA1-KO, 10000 nM) was -6.62%, the viability inhibition (HCT116 [2]; genotype: control, 16 nM) was -7.18% and the viability inhibition (HCT116 [2]; genotype: control, 80 nM) was -18.6%. The viability inhibition (HCT116 [2]; genotype: control, 400 nM) was 2.58%, the viability inhibition (HCT116 [2]; genotype: control, 2000 nM) was 2.07% and the viability inhibition (HCT116 [2]; genotype: control, 10000 nM) was 31.7%.

With `CO[C@H]1C[C@@H]2CC[C@@H](C)[C@@](O)(O2)C(=O)C(=O)N2CCCC[C@H]2C(=O)O[C@H]([C@H](C)C[C@@H]2CC[C@H](n3cnnn3)[C@H](OC)C2)CC(=O)[C@H](C)/C=C(\C)[C@@H](O)[C@@H](OC)C(=O)[C@H](C)C[C@H](C)/C=C/C=C/C=C/1C` [Zotarolimus] the IC50 (HCT116 [1]; genotype: MTA1-KO) was 2.07 µM, the IC50 (HCT116 [1]; genotype: control) was > 10 µM and the viability inhibition (HCT116 [2]; genotype: MTA1-KO, 16 nM) was 5.1%. It also gave a viability inhibition (HCT116 [2]; genotype: MTA1-KO, 80 nM) of -1.86%, a viability inhibition (HCT116 [2]; genotype: MTA1-KO, 400 nM) of 2.56% and a viability inhibition (HCT116 [2]; genotype: MTA1-KO, 2000 nM) of 34.7%. For the same molecule, the viability inhibition (HCT116 [2]; genotype: MTA1-KO, 10000 nM) was 69.3%, the viability inhibition (HCT116 [2]; genotype: control, 16 nM) was -4.9% and the viability inhibition (HCT116 [2]; genotype: control, 80 nM) was -11.3%. For the same molecule, the viability inhibition (HCT116 [2]; genotype: control, 400 nM) was -9.38%, the viability inhibition (HCT116 [2]; genotype: control, 2000 nM) was -17.6% and the viability inhibition (HCT116 [2]; genotype: control, 10000 nM) was 9.36%.

For `C/C=C/c1cc(OC)c(OC)cc1OC` [alpha-Asarone], the IC50 (HCT116 [1]; genotype: MTA1-KO) was > 10 µM, the IC50 (HCT116 [1]; genotype: control) was > 10 µM and the viability inhibition (HCT116 [2]; genotype: MTA1-KO, 16 nM) was -3.55%. For the same molecule, the viability inhibition (HCT116 [2]; genotype: MTA1-KO, 80 nM) was -23.5%, the viability inhibition (HCT116 [2]; genotype: MTA1-KO, 400 nM) was -15.1% and the viability inhibition (HCT116 [2]; genotype: MTA1-KO, 2000 nM) was -10.5%. For the same molecule, the viability inhibition (HCT116 [2]; genotype: MTA1-KO, 10000 nM) was 9.18%, the viability inhibition (HCT116 [2]; genotype: control, 16 nM) was -6.36% and the viability inhibition (HCT116 [2]; genotype: control, 80 nM) was -8.84%. For the same molecule, the viability inhibition (HCT116 [2]; genotype: control, 400 nM) was -15.6%, the viability inhibition (HCT116 [2]; genotype: control, 2000 nM) was -8.42% and the viability inhibition (HCT116 [2]; genotype: control, 10000 nM) was -0.859%.
